Experimental data as given in US5376688A, “Enhanced solubility pharmaceutical solutions” (R. P. Scherer Corporation, priority 1992, dated 1994).
Where a SMILES comes first, the peptide text is derived from it.

What was measured:
[1] = Saturated aspartame solutions: solubility with hydrochloric acid; assay type: physicochemical; conditions: for ASPARTAME SOLUBILITY (%): saturated solution
Source text: The following saturated aspartame solutions were made using aspartame for a model for an amphoteric pharmaceutical agent. […] These solutions are suitable for filling into soft gelatin capsules.

[2] = Saturated aspartame solutions: solubility with potassium hydroxide; assay type: physicochemical; conditions: for ASPARTAME SOLUBILITY (%): saturated solution
Method: The following saturated aspartame solutions were prepared, using aspartame as a model of an amphoteric pharmaceutical agent. These solutions contain the indicated amount of aspartame, the indicated solvent and the indicated amount of potassium hydroxide. […] The solutions were suitable for filling into soft gelatin capsules.

[3] = Saturated ibuprofen solutions: solubility (weight percent) with potassium hydroxide

SMILES: COC(=O)[C@H](Cc1ccccc1)NC(=O)[C@@H](N)CC(=O)O [aspartame] (H-Asp-Phe-OMe)
- enhanced solubility (in words) ([1]; hydrochloric acid, each solvent): enhanced solubility was noted
- ASPARTAME SOLUBILITY (%) ([1]; solvent LABRASOL, mole equivalent acid 0): 0.30%
- ASPARTAME SOLUBILITY (%) ([1]; solvent LABRASOL, mole equivalent acid (HCl) 50 (so in the source)): 0.50%
- ASPARTAME SOLUBILITY (%) ([1]; solvent PLURONIC L62, mole equivalent acid 0): 0.045%
- ASPARTAME SOLUBILITY (%) ([1]; solvent PLURONIC L62, mole equivalent acid (HCl) 50 (so in the source)): 0.095%
- ASPARTAME SOLUBILITY (%) ([1]; solvent TRANSCUTOL, mole equivalent acid 0): 0.43%
- ASPARTAME SOLUBILITY (%) ([1]; solvent TRANSCUTOL, mole equivalent acid (HCl) 50 (so in the source)): 0.91%
- enhanced solubility (in words) ([2]; potassium hydroxide, except for Pluronic L62): showed enhanced solubility in the presence of the hydroxide species
- ASPARTAME SOLUBILITY (%) ([2]; solvent LABRASOL, mole equivalent hydroxide 0): 0.30%
- ASPARTAME SOLUBILITY (%) ([2]; solvent LABRASOL, mole equivalent hydroxide (KOH) 0.50): 0.60%
- ASPARTAME SOLUBILITY (%) ([2]; solvent PLURONIC L62, mole equivalent hydroxide 0): 0.045%
- ASPARTAME SOLUBILITY (%) ([2]; solvent PLURONIC L62, mole equivalent hydroxide (KOH) 0.50): 0.045%
- ASPARTAME SOLUBILITY (%) ([2]; solvent TRANSCUTOL, mole equivalent hydroxide 0): 0.43%
- ASPARTAME SOLUBILITY (%) ([2]; solvent TRANSCUTOL, mole equivalent hydroxide (KOH) 0.50): 0.68%

SMILES: CC(C)Cc1ccc(C(C)C(=O)O)cc1 (stereo not shown) [ibuprofen]
- IBUPROFEN SOLUBILITY (%) ([3]; solvent LABRASOL, mole equivalent hydroxide 0, saturated solution): 25.0%
- IBUPROFEN SOLUBILITY (%) ([3]; solvent LABRASOL, mole equivalent hydroxide (KOH) 0.25, saturated solution): 40.0%
- IBUPROFEN SOLUBILITY (%) ([3]; solvent LABRASOL, mole equivalent hydroxide (KOH) 0.5, saturated solution): 45.0%
- IBUPROFEN SOLUBILITY (%) ([3]; solvent LABRASOL, mole equivalent hydroxide (KOH) 0.75, saturated solution): 42.5%
- IBUPROFEN SOLUBILITY (%) ([3]; solvent LABRASOL, mole equivalent hydroxide (KOH) 1.0, saturated solution): 40.0%
- IBUPROFEN SOLUBILITY (%) ([3]; solvent PLUROL OLEIQUE, mole equivalent hydroxide 0, saturated solution): 15.0%
- IBUPROFEN SOLUBILITY (%) ([3]; solvent PLUROL OLEIQUE, mole equivalent hydroxide (KOH) 0.5, saturated solution): 30.0%
- IBUPROFEN SOLUBILITY (%) ([3]; solvent PLURONIC L62, mole equivalent hydroxide 0, saturated solution): 10.0%
- IBUPROFEN SOLUBILITY (%) ([3]; solvent PLURONIC L62, mole equivalent hydroxide (KOH) 0.25, saturated solution): 15.0%
- IBUPROFEN SOLUBILITY (%) ([3]; solvent PLURONIC L62, mole equivalent hydroxide (KOH) 0.5, saturated solution): 20.0%
- IBUPROFEN SOLUBILITY (%) ([3]; solvent PLURONIC L62, mole equivalent hydroxide (KOH) 0.75, saturated solution): 27.5%
- IBUPROFEN SOLUBILITY (%) ([3]; solvent PLURONIC L62, mole equivalent hydroxide (KOH) 1.0, saturated solution): 30.0%
- IBUPROFEN SOLUBILITY (%) ([3]; solvent TRANSCUTOL, mole equivalent hydroxide 0, saturated solution): 42.5%
- IBUPROFEN SOLUBILITY (%) ([3]; solvent TRANSCUTOL, mole equivalent hydroxide (KOH) 0.25, saturated solution): 55.0%
- IBUPROFEN SOLUBILITY (%) ([3]; solvent TRANSCUTOL, mole equivalent hydroxide (KOH) 0.5, saturated solution): 60.0%
- IBUPROFEN SOLUBILITY (%) ([3]; solvent TRANSCUTOL, mole equivalent hydroxide (KOH) 0.75, saturated solution): 52.5%
- IBUPROFEN SOLUBILITY (%) ([3]; solvent TRANSCUTOL, mole equivalent hydroxide (KOH) 1.0, saturated solution): 52.5%
